This passage reports Ki results from patent US7919508B2, “3-piperidinylisochroman-5-ols as dopamine agonists” (Aventis Pharmaceuticals Inc., priority 2004, dated 2011).

Experiment [1] addresses T1, human dopamine D1 receptor (Homo sapiens, UniProt P21728).
T1 construct: A 1.4 Kb Hind III to Xho I fragment was subcloned into the vector pMMLV; expressed in transfected cells; host or cells: CHO cells, clone CHO-D1M#9 (plasmid pHD1MMLV), membranes
Nature of the experiment: [3H]-SCH-23390 binding to cloned human dopamine D1 receptors (CHO cell membranes). The conditions noted are these: competitive binding, [3H]-SCH-23390, cloned human D1 in CHO membranes; read-out: D1 affinity Ki. On the procedure: [^3H]-SCH-23390 Binding to Cloned Human Dopamine D1 Receptors
Determination of relative binding affinity of potential neuropsychiatric and other agents for the human dopamine D1 receptor.
The human D, cDNA was obtained from the laboratory of Dr. Marc Caron in the vector pCMV5. A 1.4 Kb Hind III to Xho I fragment was subcloned into the vector pMMLV. The plasmid pHD1MMLV was then sequenced completely. Transient transfections in COS-7 cells were performed and D1 specific binding was obtained. The construct pHD1MMLV was then transfected stably into CHO cells and 72 G418-resistant clones were isolated. High expressors were identified by mRNA dot blot analysis. Six high expressors were further characterized by binding and then clone CHO-D1M#9 was chosen for detailed pharmacological characterization. This clone was then grown in suspension culture for the purpose of obtaining enough protein to accommodate several months of screening.
B. Cell Culture Conditions
• 1. […] Cells are transferred to suspension culture when at least […] are available (this allows for 300,000 cells/ml in a 50 ml spinner flask; this is the ideal suspension density). Cells are removed from flasks with trypsin, spun down at 1000×G and resuspended the pellet in fresh medium: • 50% CHO-SFM-II+50% Ham's F12 w/10% FBS (final FBS conc. 5%)+400 μg/ml G418+1% P/S. • 3. After the transfer to suspension culture, growth is monitored and cell viability is assessed using trypan blue exclusion. Total and viable cell count on 5 sectors of the hemocytometer are recorded. When the viable cell density reaches 600,000 cell/ml, the volume is doubled. • 4. After 1 week of growth in the 50/50 medium, the cells are spun down and transferred to a new spinner flask and replaced with 75% CHO-SFM II/25% Ham's F12+10% FBS plus the pen-strep and G418. Thereafter every 3 days, the medium is replaced with new medium containing a decreasing amount of FBS as follows:
• 5. The final maintenance culturing medium is made up as follows: • A stock mixture of 10 ml of pen-strep, 0.5 ml of […] (active; final concentration: 200 μg/ml) G418 and 1 ml of FBS are mixed and filtered and refrigerated. A volume (11.5 ml) of this mixture is added to a freshly opened 1 L bottle of CHO-SFM II. C. Membrane Preparation
Cells are harvested into 250 ml centrifuge tubes and spun down at 1200×G. The medium is removed and 100 ml PBS (phosphate-buffered saline) is added to each centrifuge tube; cells are resuspended and spun down again. The PBS is removed and the final pellet is homogenized with a polytron on ice at a medium setting.
The membrane suspension is diluted in water and samples (10, 50 and 100 μl; q.s. to 100 μl with water) are diluted with 100 μl of 1% SDS. The sample is vortexed and allowed to stand for 5 min. Two aliquots each of the solubilized protein sample are placed in clean 13×100 test tubes for the assay. Instructions are followed as outlined in the BioRad DC protein determination kit (Catalog # 500-0112). OD readings that fall between 0.1-0.5 (mid-range of standard curve) should typically be used for calculations. Protein concentrations are calculated from a standard curve using bovine serum albumin as standard by linear regression and interpolation.
Following cell harvesting and protein determination, the homogenate is diluted with 10% DMSO to the correct volume based on Bmax and relative size of individual experiments to be conducted. The concentrated protein is stored in cryogenic vials in aliquots of 1-1.5 ml. Samples may be stored in −80° C. freezer or in liquid nitrogen.

Experiment [2] concerns the target human dopamine D2Long (D2L) receptors (Homo sapiens, UniProt P14416).

Where a name gives a salt, the structure may show the parent alone. Bounds are passed on as bounds.

Usually Ki stands for the equilibrium dissociation constant of an inhibitor or competing ligand from its target.

Chain of human dopamine D2Long (D2L) receptors (P14416 whole entry): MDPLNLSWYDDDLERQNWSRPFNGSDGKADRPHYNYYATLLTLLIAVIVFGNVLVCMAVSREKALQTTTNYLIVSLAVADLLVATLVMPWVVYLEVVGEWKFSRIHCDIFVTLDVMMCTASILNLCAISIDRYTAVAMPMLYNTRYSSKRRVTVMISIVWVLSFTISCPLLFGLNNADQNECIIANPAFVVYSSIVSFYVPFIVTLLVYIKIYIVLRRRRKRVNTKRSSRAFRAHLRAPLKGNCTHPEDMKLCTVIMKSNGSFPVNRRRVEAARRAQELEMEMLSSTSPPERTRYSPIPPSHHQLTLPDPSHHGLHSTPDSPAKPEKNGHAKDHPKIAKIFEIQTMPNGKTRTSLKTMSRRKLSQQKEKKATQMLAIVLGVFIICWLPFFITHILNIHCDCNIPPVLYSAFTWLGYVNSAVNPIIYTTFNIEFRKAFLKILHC
T1 sequence (P21728 whole entry, the tested form may be a part): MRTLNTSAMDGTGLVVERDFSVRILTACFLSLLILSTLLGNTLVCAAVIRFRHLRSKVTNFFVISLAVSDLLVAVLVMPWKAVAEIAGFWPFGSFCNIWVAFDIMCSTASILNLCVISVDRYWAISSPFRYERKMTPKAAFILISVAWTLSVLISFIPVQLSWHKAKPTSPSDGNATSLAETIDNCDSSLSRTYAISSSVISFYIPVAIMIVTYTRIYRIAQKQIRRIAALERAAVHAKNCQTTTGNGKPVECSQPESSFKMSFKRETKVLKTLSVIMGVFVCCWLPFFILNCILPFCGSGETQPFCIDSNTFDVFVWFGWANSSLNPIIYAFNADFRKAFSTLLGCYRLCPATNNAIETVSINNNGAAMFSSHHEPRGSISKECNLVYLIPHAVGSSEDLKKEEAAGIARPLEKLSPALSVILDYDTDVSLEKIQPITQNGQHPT

On to `CCC(NC(=O)c1ccc(C)cc1)C(C)CN1CCC([C@@H]2Cc3c(ccc(C)c3O)[C@H](CN)O2)CC1` (stereo partly drawn) [Example 14, N-{3-[4-((1R,3S)-1-Aminomethyl-5-hydroxy-6-methyl-isochroman-3-yl)-piperidin-1-yl]-1-ethyl-2-methyl-propyl}-4-methyl-benzamide dihydrochloride], for which the values for the Ki in experiment [1] and in experiment [2] were 274 nM and not below 100000 nM, respectively.

On to `Cc1ccc2c(c1O)C[C@@H](C1CCN(CCC(C)NC(=O)c3ccc(-c4ccccc4)cc3)CC1)O[C@H]2CN` (stereo partly drawn) [Example 18, Biphenyl-4-carboxylic acid {3-[4-((1R,3S)-1-aminomethyl-5-hydroxy-6-methyl-isochroman-3-yl)-piperidin-1-yl]-1-methyl-propyl}-amide dihydrochloride], for which the results for the Ki in experiment [1] and in experiment [2] were 244 nM and 389 nM, respectively.

For the compound `Cc1ccc2c(c1O)C[C@@H](C1CCN(CCC(C)NC(=O)c3ccc([N+](=O)[O-])cc3)CC1)O[C@H]2CN` (stereo partly drawn) [Example 24, N-{3-[4-((1R,3S)-1-Aminomethyl-5-hydroxy-6-methyl-isochroman-3-yl)-piperidin-1-yl]-1-methyl-propyl}-4-nitro-benzamide dihydrochloride], the Ki in experiment [1] was found to be 240 nM; in experiment [2], 638 nM.

Take `Cc1ccc2c(c1O)C[C@@H](C1CCN(CC(C)C)CC1)O[C@H]2CN` [Example 40, (1R,3S)-1-Aminomethyl-3-(1-isobutyl-piperidin-4-yl)-6-methyl-isochroman-5-ol dihydrochloride]: the Ki in experiment [1] was 361 nM; in experiment [2] it was not below 10000 nM.

Regarding `Cc1ccc2c(c1O)C[C@@H](C1CCN(CC(C)(C)C)CC1)O[C@H]2CN` [Example 42, (1R,3S)-1-Aminomethyl-3-[1-(2,2-dimethyl-propyl)-piperidin-4-yl]-6-methyl-isochroman-5-ol dihydrochloride], the Ki in experiment [1] was 398 nM; in experiment [2], not below 10000 nM.

`Cc1ccc2c(c1O)C[C@@H](C1CCN(Cc3ccc(F)cc3F)CC1)O[C@H]2CN` [Example 50, (1R,3S)-1-Aminomethyl-3-[1-(2,4-difluoro-benzyl)-piperidin-4-yl]-6-methyl-isochroman-5-ol dihydrochloride]: the values for the Ki in experiment [1] and in experiment [2] were 47.3 nM and 367 nM, respectively.

Regarding `Cc1ccc2c(c1O)C[C@@H](C1CCN(C(C)c3ccccc3)CC1)O[C@H]2CN` (stereo partly drawn) [Example 51, (1R,3S)-1-Aminomethyl-6-methyl-3-[1-(1-phenyl-ethyl)-piperidin-4-yl]-isochroman-5-ol dihydrochloride], the Ki in experiment [1] was determined as 156 nM.

Turning to `Cc1ccc2c(c1O)C[C@@H](C1CCN(Cc3ccccn3)CC1)O[C@H]2CN` [Example 52, (1R,3S)-1-Aminomethyl-6-methyl-3-(1-pyridin-2-ylmethyl-piperidin-4-yl)-isochroman-5-ol dihydrochloride], the figures for the Ki in experiment [1] and in experiment [2] were 113 nM and not below 10000 nM, respectively.

As for `Cc1ccccc1CN1CCC([C@@H]2Cc3c(ccc(C)c3O)[C@H](CN)O2)CC1` [Example 64, (1R,3S)-1-Aminomethyl-6-methyl-3-[1-(2-methyl-benzyl)-piperidin-4-yl]-isochroman-5-ol dihydrochloride], the Ki in experiment [1] is 198 nM; in experiment [2], 576 nM.

For `COc1ccccc1CN1CCC([C@@H]2Cc3c(ccc(C)c3O)[C@H](CN)O2)CC1` [Example 68, (1R,3S)-1-Aminomethyl-3-[1-(2-methoxy-benzyl)-piperidin-4-yl]-6-methyl-isochroman-5-ol dihydrochloride], the Ki in experiment [1] was found to be 96.7 nM; in experiment [2] it was 232 nM.

In the case of `Cc1ccc2c(c1O)C[C@@H](C1CCN(Cc3ccccc3C(F)(F)F)CC1)O[C@H]2CN` [Example 72, (1R,3S)-1-Aminomethyl-6-methyl-3-[1-(2-trifluoromethyl-benzyl)-piperidin-4-yl]-isochroman-5-ol dihydrochloride], the Ki in experiment [1] came to 159 nM; in experiment [2], 266 nM.

Take `Cc1ccc2c(c1O)C[C@@H](C1CCN(Cc3cccc(C(F)(F)F)c3Cl)CC1)O[C@H]2CN` [Example 79, (1R,3S)-1-Aminomethyl-3-[1-(2-chloro-3-trifluoromethyl-benzyl)-piperidin-4-yl]-6-methyl-isochroman-5-ol dihydrochloride]: the Ki worked out at 81 nM in experiment [1] and 310 nM in experiment [2].

For `Cc1ccc2c(c1O)C[C@@H](C1CCN(Cc3cccc(C(F)(F)F)c3F)CC1)O[C@H]2CN` [Example 80, (1R,3S)-1-Aminomethyl-3-[1-(2-fluoro-3-trifluoromethyl-benzyl)-piperidin-4-yl]-6-methyl-isochroman-5-ol dihydrochloride], the Ki was 48.7 nM in experiment [1] and 565 nM in experiment [2].

In the case of `Cc1ccc2c(c1O)C[C@@H](C1CCN(Cc3cc(C(F)(F)F)ccc3F)CC1)O[C@H]2CN` [Example 81, (1R,3S)-1-Aminomethyl-3-[1-(2-fluoro-5-trifluoromethyl-benzyl)-piperidin-4-yl]-6-methyl-isochroman-5-ol dihydrochloride], the Ki in experiment [1] is 28.7 nM; in experiment [2], 343 nM.

With `Cc1ccc2c(c1O)C[C@@H](C1CCN(Cc3ccc(C(F)(F)F)c(F)c3)CC1)O[C@H]2CN` [Example 82, (1R,3S)-1-Aminomethyl-3-[1-(3-fluoro-4-trifluoromethyl-benzyl)-piperidin-4-yl]-6-methyl-isochroman-5-ol dihydrochloride], the values for the Ki in experiment [1] and in experiment [2] were 15.6 nM and not below 10000 nM, respectively.

For the compound `Cc1ccc2c(c1O)C[C@@H](C1CCN(Cc3ccc(F)c(C(F)(F)F)c3)CC1)O[C@H]2CN` [Example 83, (1R,3S)-1-Aminomethyl-3-[1-(4-fluoro-3-trifluoromethyl-benzyl)-piperidin-4-yl]-6-methyl-isochroman-5-ol dihydrochloride], the Ki in experiment [1] was 15.9 nM; in experiment [2] it was 611 nM.

For the compound `Cc1ccc2c(c1O)C[C@@H](C1CCN(C(=O)N(c3ccccc3)c3ccccc3)CC1)O[C@H]2CN` [Example 130, 4-((1R,3S)-1-Aminomethyl-5-hydroxy-6-methyl-isochroman-3-yl)-piperidine-1-carboxylic acid diphenylamide hydrochloride], the Ki in experiment [1] was found to be 156 nM.

As to `CCCN(C)C[C@@H]1O[C@H](C2CCN(Cc3ccc(C(F)(F)F)cc3)CC2)Cc2c1ccc(C)c2O` [Example 184, (1R,3S)-6-Methyl-1-[(methyl-propyl-amino)-methyl]-3-[1-(4-trifluoromethyl-benzyl)-piperidin-4-yl]-isochroman-5-ol], the Ki in experiment [1] was found to be 110 nM.

As to `C=CCN(CC=C)C[C@@H]1O[C@H](C2CCN(Cc3ccc(C(F)(F)F)cc3)CC2)Cc2c1ccc(C)c2O` [Example 185, (1R,3S)-1-Diallylaminomethyl-6-methyl-3-[1-(4-trifluoromethyl-benzyl)-piperidin-4-yl]-isochroman-5-ol], the Ki in experiment [1] came to 3100 nM.

`C=CCNC[C@@H]1O[C@H](C2CCN(Cc3ccccc3)CC2)Cc2c1ccc(C)c2O` [Example 186, (1R,3S)-1-Allylaminomethyl-3-(1-benzyl-piperidin-4-yl)-6-methyl-isochroman-5-ol]: the Ki in experiment [1] worked out at 1910 nM.

For `C=CCN(CC=C)C[C@@H]1O[C@H](C2CCN(Cc3ccccc3)CC2)Cc2c1ccc(C)c2O` [Example 187, (1R,3S)-3-(1-Benzyl-piperidin-4-yl)-1-diallylaminomethyl-6-methyl-isochroman-5-ol], the inhibition constant (Ki) in experiment [1] was 2640 nM.

Take `Cc1ccc2c(c1O)C[C@@H](C1CCN(C(C(=O)O)c3ccccc3)CC1)O[C@H]2CN` (stereo partly drawn) [Example 195, [4-((1R,3S)-1-Aminomethyl-5-hydroxy-6-methyl-isochroman-3-yl)-piperidin-1-yl]-phenylacetic acid dihydrobromide]: the Ki in experiment [1] was 1700 nM.
